Assay results published in patent publication US20020115642A1, “Beta-lactam antibiotics” (priority 2000, published 2002).
Converted amounts (≈) assume the structure as drawn. Where two headings read alike, the source gives them in different places.

Columns and labels:
Test in all cases: Susceptibility testing (MIC, modified NCCLS method)
[1] = tested on: E. coli N; format: cell-based, Escherichia coli; conditions: E. coli (N)
Method: (§1) The NCCLS (National Committee for Clinical Laboratory Standards) method to determine MIC's of antimicrobial compounds was modified for high-throughput screening. All stocks of tested compounds were prepared in either water or in dimethylsulfoxide (DMSO), depending on the solubility. […] Briefly 20 2-fold serial dilutions of testing compounds from the highest concentration were made in a 384-well microtiter plate. Each well was inoculated with testing bacteria in broth to a final concentration of approximately 1-1.5×10^6 cells/ml. Bacterial growth was determined by the increase of optical density at 600 nm using a microplate reader (Tecan SpectraFluor Plus).

[2] = tested on: E. coli/TEM-1; format: cell-based, Escherichia coli
Method: as §1

[3] = tested on: Staphylococcus aureus; format: cell-based
Method: as §1

[4] = tested on: E. faecalis; format: cell-based, Enterococcus faecalis
Method: as §1

[5] = tested on: E. cloacae; format: cell-based, Enterobacter cloacae
Method: as §1

[6] = tested on: E. aerogenes; format: cell-based, Enterobacter aerogenes
Method: as §1

[7] = tested on: K. pneumoniae; format: cell-based, Klebsiella pneumoniae
Method: as §1

[8] = tested on: P. aeruginosa; format: cell-based, Pseudomonas aeruginosa
Method: as §1

[9] = Escherichia coli, read-out: MIC
[10] = Staphylococcus aureus, ATCC11632, S. aureus ATCC 11632, read-out: MIC
[11] = Staphylococcus aureus, ATCC33594, S. aureus ATCC 33594, read-out: MIC
[12] = Staphylococcus aureus, ATCC700260, S. aureus ATCC 700260, read-out: MIC
[13] = Staphylococcus aureus, ATCC700699, S. aureus ATCC 700699, read-out: MIC
[14] = Enterococcus faecalis, ATCC49757, E. faecalis ATCC 49757, read-out: MIC
[15] = Enterococcus faecalis, ATCC700802, E. faecalis ATCC 700802, read-out: MIC
[16] = Enterobacter cloacae, ATCC23355, E. cloacae ATCC 23355, read-out: MIC
[17] = Klebsiella aerogenes, ATCC35028, E. aerogenes ATCC 35028, read-out: MIC
[18] = Klebsiella pneumoniae, ATCC51503, K. pneumoniae ATCC 51503, read-out: MIC
[19] = Klebsiella pneumoniae, ATCC700721, K. pneumoniae ATCC 700721, read-out: MIC
[20] = Pseudomonas aeruginosa, ATCC21726, P. aeruginosa ATCC 21726, read-out: MIC
[21] = Pseudomonas aeruginosa, ATCC29872, P. aeruginosa ATCC 29872, read-out: MIC

Compound | MIC [3, 12] | MIC [3, 13] | MIC [7, 19] | MIC [8, 20] | MIC [1] | MIC ([2]; E. coli/Tem-1) | MIC ([3]; S. aureus ATCC 11632) | MIC ([3]; S. aureus ATCC 33594) | MIC ([3]; S. aureus ATCC 700260) | MIC ([3]; S. aureus ATCC 700699) | MIC ([4]; E. faecalis ATCC 49757) | MIC ([4]; E. faecalis ATCC 700802) | MIC ([5]; E. cloacae ATCC 23355) | MIC ([6]; E. aerogenes ATCC 35028) | MIC ([7]; K. pneumoniae ATCC 51503) | MIC ([7]; K. pneumoniae ATCC 700721) | MIC ([8]; P. aeruginosa ATCC 21726) | MIC ([8]; P. aeruginosa ATCC 29872) | also measured
O=C(Cc1cccs1)NC1C(=O)N2C(C(=O)O)C(COC(=O)Oc3cc(Cl)ccc3Oc3ccc(Cl)cc3Cl)=CS[C@H]12 (stereo partly drawn) [Compound 15, 3-((2-(2,4-Dichlorophenoxy)-5-chlorophenoxy)carbonyloxy)methyl-7-(2-thienylacetamido)-2-cephem-4-carboxylic acid] | 61 ng/mL (≈ 0.0911 µM) | 61 ng/mL (≈ 0.0911 µM) | 1.96 µg/mL (≈ 2.93 µM) | > 15.7 µg/mL |  |  |  |  |  |  |  |  |  |  |  |  |  |  | MIC [1, 9]: 0.008 µg/mL (≈ 0.0119 µM); MIC ([2]; Escherichia coli): 0.0031 µg/mL (≈ 0.00463 µM); MIC [3, 10]: 610 ng/mL (≈ 0.911 µM); MIC [3, 11]: 61 ng/mL (≈ 0.0911 µM); MIC [4, 14]: > 15.7 µg/mL; MIC [4, 15]: 15.7 µg/mL (≈ 23.4 µM); MIC [5, 16]: 0.25 µg/mL (≈ 0.373 µM); MIC [6, 17]: 0.98 µg/mL (≈ 1.46 µM); MIC [7, 18]: 1.96 µg/mL (≈ 2.93 µM); MIC [8, 21]: > 15.7 µg/mL
O=C(Cn1cnnn1)Nc1ncc(CC(=O)NC2C(=O)N3C(C(=O)O)=C(COc4cc(Cl)ccc4Oc4ccc(Cl)cc4Cl)CS[C@H]23)s1 (stereo partly drawn) [Compound 43] |  |  |  |  | 2 µg/mL (≈ 2.66 µM) | 0.25 µg/mL (≈ 0.332 µM) | 32000 ng/mL (≈ 42.6 µM) | 63 ng/mL (≈ 0.0838 µM) | 8000 ng/mL (≈ 10.6 µM) | 32000 ng/mL (≈ 42.6 µM) | 32 µg/mL (≈ 42.6 µM) | 32 µg/mL (≈ 42.6 µM) | 32 µg/mL (≈ 42.6 µM) | 32 µg/mL (≈ 42.6 µM) | 32 µg/mL (≈ 42.6 µM) | 4 µg/mL (≈ 5.32 µM) | >32 µg/mL | >32 µg/mL | MIC ([3]; S. aureus ATCC 33591): 125 ng/mL (≈ 0.166 µM)
Cc1nnc(SCC(=O)Nc2ncc(CC(=O)NC3C(=O)N4C(C(=O)O)=C(COc5cc(Cl)ccc5Oc5ccc(Cl)cc5Cl)CSC34)s2)s1 (stereo not drawn) [Compound 47] |  |  |  |  | 2 µg/mL (≈ 2.46 µM) | 0.25 µg/mL (≈ 0.307 µM) | >32000 ng/mL | 63 ng/mL (≈ 0.0774 µM) | 8000 ng/mL (≈ 9.83 µM) | >32000 ng/mL | >32 µg/mL | >32 µg/mL | >32 µg/mL | >32 µg/mL | >32 µg/mL | 8 µg/mL (≈ 9.83 µM) | >32 µg/mL | >32 µg/mL | MIC ([3]; S. aureus ATCC 33591): 125 ng/mL (≈ 0.154 µM)
NC(C(=O)NC1C(=O)N2C(C(=O)O)=C(COc3cc(Cl)ccc3Oc3ccc(Cl)cc3Cl)CSC12)c1ccccc1 (stereo not drawn) [Compound 38, 3-(2-(2,4-Dichlorophenoxy)-5-chlorophenoxy)methyl-7-(1-phenyl-2-aminoacetamido)-3-cephem-4-carboxylic acid] |  |  |  |  | 0.031 µg/mL (≈ 0.0488 µM) | 0.015 µg/mL (≈ 0.0236 µM) | 62 ng/mL (≈ 0.0976 µM) | 62 ng/mL (≈ 0.0976 µM) | 0.015 ng/mL (≈ 2.36e-05 µM) | 0.015 ng/mL (≈ 2.36e-05 µM) | 15.9 µg/mL (≈ 25 µM) | 15.9 µg/mL (≈ 25 µM) | 1.98 µg/mL (≈ 3.12 µM) | 1.98 µg/mL (≈ 3.12 µM) | 1.98 µg/mL (≈ 3.12 µM) |  | >15.9 µg/mL | >15.9 µg/mL | 
CC(=O)NC1C(=O)N2C(C(=O)O)=C(COc3cc(Cl)ccc3Oc3ccc(Cl)cc3Cl)CSC12 (stereo not drawn) [Compound 45] |  |  |  |  |  |  | >32000 ng/mL | 63 ng/mL (≈ 0.116 µM) | 63 ng/mL (≈ 0.116 µM) | 16000 ng/mL (≈ 29.4 µM) | 16 µg/mL (≈ 29.4 µM) | 32 µg/mL (≈ 58.8 µM) | >32 µg/mL | >32 µg/mL | 8 µg/mL (≈ 14.7 µM) | 2 µg/mL (≈ 3.68 µM) | >32 µg/mL | >32 µg/mL | 
O=C(Cc1cccs1)NC1C(=O)N2C(C(=O)O)=C(C=CCOc3ccc(Cl)cc3C(=O)Nc3ccc(Cl)c(Cl)c3)CS[C@H]12 (stereo partly drawn) [Compound 35, 3-{3-[4-Chloro-2-(3,4-dichloro-phenylcarbamoyl)-phenoxy]-propenyl}-7-(2-thiophene-acetmido)-3-cephem-4-carboxylic acid] |  |  |  |  |  |  | 63 ng/mL (≈ 0.0928 µM) | 63 ng/mL (≈ 0.0928 µM) | 250 ng/mL (≈ 0.368 µM) | >32000 ng/mL | 8 µg/mL (≈ 11.8 µM) | >32 µg/mL | >32 µg/mL | >32 µg/mL | >32 µg/mL | >32 µg/mL | >32 µg/mL | >32 µg/mL | 
C[C@@H](O)[C@H]1C(=O)N2C(C(=O)O)=C(SCCN=CN)C[C@H]12 [Imipenem, reference compound] |  |  |  |  |  |  |  |  |  |  |  |  |  |  |  |  |  |  | MIC range ([5]; E. cloacae (1)): 0.0078 µg/mL (≈ 0.0261 µM); MIC ([5]; Enterobacter cloacae, E. cloacae (1), read-out: GM* MIC (geometric mean)): 0.0078 µg/mL (≈ 0.0261 µM); MIC range ([6]; E. aerogenes (5)): 0.5 to 1 µg/mL; MIC ([6]; Klebsiella aerogenes, E. aerogenes (5), read-out: GM* MIC (geometric mean)): 0.66 µg/mL (≈ 2.2 µM); MIC range ([7]; K. pneumoniae (5)): 0.063 to 8 µg/mL; MIC ([7]; Klebsiella pneumoniae, K. pneumoniae (5), read-out: GM* MIC (geometric mean)): 0.46 µg/mL (≈ 1.54 µM)
O=C(O)CCC(=O)N[C@@H]1C(=O)N2C(C(=O)O)=C(COc3cc(Cl)ccc3Oc3ccc(Cl)cc3Cl)CS[C@H]12 [Compound 36] | > 32000 ng/mL | > 32000 ng/mL | > 32 µg/mL | > 32 µg/mL |  |  |  |  |  |  |  |  |  |  |  |  |  |  | MIC [3, 10]: > 32000 ng/mL; MIC ([3]; Staphylococcus aureus, ATCC33591, S. aureus ATCC 33591, read-out: MIC): 2000 ng/mL (≈ 3.32 µM); MIC [3, 11]: > 32000 ng/mL; MIC [4, 14]: > 32 µg/mL; MIC [4, 15]: > 32 µg/mL; MIC [5, 16]: > 32 µg/mL; MIC [6, 17]: > 32 µg/mL; MIC [7, 18]: > 32 µg/mL; MIC [8, 21]: > 32 µg/mL
NC(C(=O)NC1C(=O)N2C(C(=O)O)=C(COc3cc(Cl)ccc3Oc3ccc(Cl)cc3Cl)CS[C@H]12)c1ccc(O)cc1 (stereo partly drawn) [Compound 41, 3-(2-(2,4-Dichlorophenoxy)-5-chlorophenoxy)methyl-7-[2-amino-2-(4-hydroxy-phenyl)acetamido)-3-cephem-4-carboxylic acid] | 63 ng/mL (≈ 0.0968 µM) | 63 ng/mL (≈ 0.0968 µM) | 8 µg/mL (≈ 12.3 µM) | > 32 µg/mL |  |  |  |  |  |  |  |  |  |  |  |  |  |  | MIC [1, 9]: 0.25 µg/mL (≈ 0.384 µM); MIC [3, 10]: 63 ng/mL (≈ 0.0968 µM); MIC [3, 11]: 63 ng/mL (≈ 0.0968 µM); MIC [4, 14]: 32 µg/mL (≈ 49.2 µM); MIC [4, 15]: 32 µg/mL (≈ 49.2 µM); MIC [5, 16]: 1 µg/mL (≈ 1.54 µM); MIC [6, 17]: 4 µg/mL (≈ 6.15 µM); MIC [7, 18]: 8 µg/mL (≈ 12.3 µM); MIC [8, 21]: > 32 µg/mL
CON=C(C(=O)NC1C(=O)N2C(C(=O)O)=C(COc3cc(Cl)ccc3Oc3ccc(Cl)cc3Cl)CSC12)c1csc(N)n1 (stereo not drawn) [Compound 44] |  |  |  |  |  |  | 500 ng/mL (≈ 0.73 µM) | 63 ng/mL (≈ 0.092 µM) | 63 ng/mL (≈ 0.092 µM) | >32000 ng/mL | 32 µg/mL (≈ 46.7 µM) | 32 µg/mL (≈ 46.7 µM) | 4 µg/mL (≈ 5.84 µM) | >32 µg/mL | 8 µg/mL (≈ 11.7 µM) | 8 µg/mL (≈ 11.7 µM) | >32 µg/mL | >32 µg/mL | 
O=C(Cc1cccs1)NC1C(=O)N2C(C(=O)O)=C(COC(=O)Oc3cc(Cl)ccc3Oc3ccc(Cl)cc3Cl)C[S+]([O-])[C@H]12 (stereo partly drawn) [Compound 17, 3-((2-(2,4-Dichlorophenoxy)-5-chlorophenoxy)carbonyloxy)methyl-7-(2-thienylacetamido)-1-oxo-3-cephem-4-carboxylic acid] | 0.063 ng/mL (≈ 9.18e-05 µM) | 0.25 ng/mL (≈ 0.000364 µM) | 1.03 µg/mL (≈ 1.5 µM) | > 16.5 µg/mL |  |  |  |  |  |  |  |  |  |  |  |  |  |  | MIC [1, 9]: 0.016 µg/mL (≈ 0.0233 µM); MIC ([2]; Escherichia coli): 0.032 µg/mL (≈ 0.0467 µM)
3-(2-(2,4-Dichlorophenoxy)-5-chlorophenoxy)methyl-7-(1-phenyl-2-aminoacetamido)-3-cephem-4-carboxylic acid [Compound 37] |  |  |  |  | 4 µg/mL | 0.12 µg/mL |  |  | 3.9 ng/mL |  |  |  |  |  |  | 8 µg/mL | >16 µg/mL |  | 
3-(2-(2,4-Dichlorophenoxy)-5-chlorophenoxy)methyl-7-[4-(2-aminothiazole)-yl-2-acetamido]-3-cephem-4-carboxylic acid [Compound 39] |  |  |  |  | 1 µg/mL | 0.063 µg/mL |  |  | 2 ng/mL | 4000 ng/mL | 16 µg/mL |  |  | >16 µg/mL | 16 µg/mL |  | >16 µg/mL |  | 
